From article PMC7887271, “Fast acting allosteric phosphofructokinase inhibitors block trypanosome glycolysis and cure acute African trypanosomiasis in mice” (Nature Communications, 2021)
“And” between values parts separate entries of the source, which are not always exact repeats. Equal entries are not always repeated.

Columns and labels:
T. b. brucei GVR35-VSL2 = assay: Mouse model of stage 1 and stage 2 HAT, bioluminescence imaging; type: in vivo, T. b. brucei in female CD-1 mice; settings: for Side head bioluminescence - Total Flux: D23, individual mice, Supp_Fig13; for parasitaemia in brains of saline-perfused mice: stage 2, day 23, ex vivo; for bioluminescence signal in the body, stage 2 treatment: treatment from day 21
Excerpt: An alternative mouse model for stage 1 (acute) and stage 2 (CNS-involved) HAT has been developed using a transgenic cell line derived from the pleiomorphic T. b. brucei GVR35 that expresses red-shifted firefly luciferase[17],[18]. […] T. b. brucei GVR35-infected mice present stage 1 disease by day 7 post infection with progression to stage 2 by day 21. By injecting the mouse with luciferin, the level of parasitaemia can be estimated in real time by monitoring the luminescence. Unlike monomorphic Lister 427 T. b. brucei, the pleiomorphic GVR35 T. b. brucei is controlled by a quorum-sensing mechanism resulting in the significant increase in survival time in mice and lower blood parasitaemia that occurs in waves. This extended survival time is also accompanied by parasite dissemination to multiple tissues and organs, including the skin, adipose tissue, lung and brain, with parasite loads increasing over time[17],[19].
For the mouse model of stage 1 and stage 2 HAT T. b. brucei GVR35-VSL2 parasites (3 × 10^4) were injected into a single donor female CD-1 mouse intraperitoneally. Once infection was established, starting on day 7 for stage 1 studies and day 21 for stage 2 studies, mice were either left untreated (n = 3) or dosed by oral gavage with CTCB compound in Cremophor EL: EtOH: D-PBS (30:10:60 v/v; n = 6). Progression of T. b. brucei GVR35-VSL2 infection was monitored primarily by in vivo bioluminescence imaging of infected mice using an IVIS Spectrum (PerkinElmer). For stage 1 studies, imaging of infected mice was performed before treatment on day 7 post infection and on days following the treatment (days 8, 9 and 14). Imaging on groups of three mice was performed 12 min after intraperitoneal injection of 150 mg kg^−1 D-luciferin (Promega) in PBS. For stage 2 studies, mice were imaged prior to treatment on day 21, and subsequently on days 22 and 23. On day 23, 24 h after the final dose, mice were sacrificed by cervical dislocation and perfused with PBS containing 15 g L^−1 glucose to allow ex vivo imaging of whole brains (Supplementary Figs. 12 and 13).
Female CD-1 (Charles River UK; 6-8 weeks old) mice were infected with 3 × 10^4 T. b. brucei GVR35-VSL2 bloodstream form parasites intraperitoneally. T. b. brucei GVR35-VSL2 expresses red-shifted luciferase and provides a better signal for imaging (13). Once infection was established, starting on day 7 for Stage 1 studies and day 21 for Stage 2 studies, mice were either left untreated (n=3) or dosed by oral gavage with CTCB compound in Cremophor EL: EtOH : D-PBS (30:10:60 v/v) (n = 6). Additional groups of mice (n=3) that received either a single intraperitoneal dose of diminazene aceturate (Sigma-Aldrich) at 40 mg/kg in sterile water or 0.1 ml melarsoprol gel (14) containing 3.6 mg melarsoprol, applied topically for 3 consecutive days, served as controls for Stage 1 and Stage 2 treatment studies, respectively.
Progression of T. b. brucei GVR35-VSL2 infection was monitored primarily by in vivo bioluminescence imaging of infected mice using an IVIS Spectrum (PerkinElmer) as described previously (5). For stage 1 studies, imaging of infected mice was performed before treatment on day 7 post-infection and in days following the treatment (days 8, 9 and 14). Imaging on groups of three mice was performed 12 minutes after intraperitoneal injection of 150 mg/kg D-luciferin (Promega) in PBS. For stage 2 studies, mice were imaged prior to treatment on day 21 and subsequently on days 22 and 23. On day 23, 24 hours after the final dose, mice were sacrificed by cervical dislocation and perfused with phosphate-buffered saline containing 15 g.L^−1 glucose to allow ex vivo imaging of whole brains. To this end, 100 μl D-luciferin was administered onto the brain surface and imaging performed immediately thereafter.

[1] = Plasma protein binding, human plasma; type: in vitro ADME; settings: equilibrium dialysis, read-out: Human plasma protein binding fu(%)
Method: A HepG2 cytotoxicity assay was used to determine a cellular selectivity index. HepG2 cells were seeded into 96-well plates in EMEM medium. Compounds were assessed for their effect upon cellular viability (Supplementary Methods 5.1). Inhibition of CYP450 was determined using kits from BD Biosciences (Supplementary Methods 5.2). Metabolic stability was determined using mouse […] tested at a single concentration of 5 µM. Plasma protein binding was determined using mouse and human plasma at a single concentration of 10 µM (Supplementary Methods 5.4). All PK studies in mice were carried out by Pharmidex (Supplementary Methods 6.1).
Compounds were tested for protein binding using mouse and human plasma at a single concentration of 10 µM and measured by equilibrium dialysis between plasma and buffer. The amount of parent was determined on both sides of the membrane after incubating for 4 hours at 37 °C. The samples were crashed with acetonitrile and put through protein precipitation plates. The eluent was analysed by LC/MS or LC/MS/MS. Output was percentage bound.

[2] = treatment during stage 1 (day 7)

SMILES | Side head bioluminescence - Total Flux (T. b. brucei GVR35-VSL2) | parasitaemia in brains of saline-perfused mice (T. b. brucei GVR35-VSL2) | bioluminescence signal in the body, stage 2 treatment (T. b. brucei GVR35-VSL2) | fraction unbound at 4 h, 10 µM [1] | detection of parasites in blood delayed to (T. b. brucei GVR35-VSL2; [2]) [day post infection] | effect on parasitaemia, stage 1 treatment (T. b. brucei GVR35-VSL2; [2])
CN(C)CCn1ccc2c(ccn2Cc2ccc(F)c(Br)c2)c1=O [CTCB-508, 1-[(3-Bromo-4-fluorophenyl)methyl]-5-[2-(dimethylamino)ethyl] pyrrolo[3,2-c]pyridin-4-one] | 7.338E+06 p/s and 1.920E+06 p/s and 5.353E+06 p/s and 4.553E+06 p/s and 1.258E+07 p/s and 2.035E+07 p/s | very clear reduction in parasitaemia | fast and significant signal reduction in the body | 0.21 | – | –
CN(C)CCn1ccc2c(ccn2Cc2ccc(Cl)c(Br)c2)c1=O [CTCB-470, 1-[(3-Bromo-4-chlorophenyl)methyl]-5-[2-(dimethylamino)ethyl] pyrrolo[3,2-c]pyridin-4-one] | 1.100E+07 p/s and 7.724E+06 p/s and 5.606E+06 p/s and 1.306E+06 p/s and 2.050E+07 p/s and 2.702E+06 p/s | very clear reduction in parasitaemia | fast and significant signal reduction in the body | 0.032 | – | –
CN(C)CCn1ccc2c(ccn2Cc2ccc(Cl)c(Cl)c2)c1=O [CTCB-405, 1-[(3,4-Dichlorophenyl)methyl]-5-[2-(dimethylamino)ethyl] pyrrolo[3,2-c]pyridin-4-one] | – | – | – | 0.063 | 14 | reduced parasitaemia in the body and blood of mice
